Here are results for 31 compounds from patent US20220340875A1, “METHODS OF CULTURING AND/OR EXPANDING STEM CELLS AND/OR LINEAGE COMMITTED PROGENITOR CELLS USING AMIDO COMPOUNDS” (IDEAYA BIOSCIENCES, INC., priority 2018, published 2022).

Molecules are shown by their SMILES.

The test concerns the target T1, hAhR (Homo sapiens, UniProt P35869).
T1 construct: Stably integrated DRE-luciferase cell lines were generated by transducing the both cell lines with Cignal XRE luciferase reporter (Qiagen) lentiviral particles; endogenous in cells
T1 sequence (P35869 11-848): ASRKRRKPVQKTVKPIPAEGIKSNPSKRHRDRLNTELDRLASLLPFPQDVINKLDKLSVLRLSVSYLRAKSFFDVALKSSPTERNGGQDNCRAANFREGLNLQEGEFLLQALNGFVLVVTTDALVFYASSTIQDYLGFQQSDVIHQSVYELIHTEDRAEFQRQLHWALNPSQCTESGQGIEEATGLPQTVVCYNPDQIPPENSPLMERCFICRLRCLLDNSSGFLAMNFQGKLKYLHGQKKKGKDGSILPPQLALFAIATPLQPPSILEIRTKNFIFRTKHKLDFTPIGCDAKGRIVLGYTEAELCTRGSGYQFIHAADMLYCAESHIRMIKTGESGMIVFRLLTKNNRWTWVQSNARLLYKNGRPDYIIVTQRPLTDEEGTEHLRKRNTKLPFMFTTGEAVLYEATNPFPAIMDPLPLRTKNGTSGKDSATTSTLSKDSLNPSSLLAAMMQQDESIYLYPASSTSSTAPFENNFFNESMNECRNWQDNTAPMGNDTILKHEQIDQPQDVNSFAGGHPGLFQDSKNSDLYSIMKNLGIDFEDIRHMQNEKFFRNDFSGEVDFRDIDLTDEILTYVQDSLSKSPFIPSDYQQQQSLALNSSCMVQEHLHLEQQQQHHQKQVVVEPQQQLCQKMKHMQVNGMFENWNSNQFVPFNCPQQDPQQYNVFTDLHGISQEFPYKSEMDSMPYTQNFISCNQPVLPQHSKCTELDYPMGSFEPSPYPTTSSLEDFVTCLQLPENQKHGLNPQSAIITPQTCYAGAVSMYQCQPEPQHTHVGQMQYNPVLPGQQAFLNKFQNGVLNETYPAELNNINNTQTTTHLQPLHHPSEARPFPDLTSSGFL
Kind of test: AhR DRE-luciferase reporter transcriptional assay, antagonist mode (TCDD-induced). The class given is cell-based. The following applies: HEPG2 DRE-Luc cells, 3 nM TCDD, 24 hour incubation, relative IC50. In short, it runs like this: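 HepG2 cells carrying a stably integrated DRE-luciferase reporter, in OptiMEM with 0.5% FBS; semi-log compound doses added with 3 nM TCDD, 24 h incubation, firefly luciferase read-out. Percent maximal activity normalised between vehicle ± TCDD; relative IC50 taken as half-reduction between curve plateaus.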
(In a reporter assay the amount or activity of a reporter protein is the signal.)
What is called IC50 is the concentration at which inhibition is half-maximal. High values mean a need for much substance, low ones inhibition by little substance. With `Cn1nccc1C(=O)Nc1ccc(-c2ccc3cc(C(F)(F)F)ccc3n2)cc1F` [Example 077, N-(2-fluoro-4-(6-(trifluoromethyl)quinolin-2-yl)phenyl)-1-methyl-1H-pyrazole-5-carboxamide], the IC50 was 200 to 500 nM.
To `Cc1cc(C(=O)N(C)c2ccc(-c3ncc4cc(C(F)(F)F)ccc4n3)cc2C)ccn1` [Example 120, N,2-dimethyl-N-(2-methyl-4-(6-(trifluoromethyl)quinazolin-2-yl)phenyl)isonicotinamide] belongs below 200 nM; to `Cc1cc(-c2ccc3ccc(C(F)(F)F)cc3n2)ccc1NC(=O)c1ccnn1C` [Example 078, 1-methyl-N-(2-methyl-4-(7-(trifluoromethyl)quinolin-2-yl)phenyl)-1H-pyrazole-5-carboxamide], 200 to 500 nM; to `Cn1nccc1C(=O)Nc1ccc(-c2ccc3cc(F)ccc3n2)cc1C(F)(F)F` [Example 048, N-(4-(6-fluoroquinolin-2-yl)-2-(trifluoromethyl)phenyl)-1-methyl-1H-pyrazole-5-carboxamide], 1000 to 10000 nM.
To `Cc1cc(-c2nc(N)c3nc(C(F)(F)F)cc(C)c3n2)ccc1N(C)C(=O)c1ccnn1C` [Example 154, N-(4-(4-amino-8-methyl-6-(trifluoromethyl)pyrido[3,2-d]pyrimidin-2-yl)-2-methylphenyl)-N,1-dimethyl-1H-pyrazole-5-carboxamide] belongs below 200 nM; to `Cc1cc(-c2ccc3cc(OC(F)(F)F)ccc3n2)ccc1N(C)C(=O)c1ccnn1C` [Example 010, N,1-dimethyl-N-(2-methyl-4-(6-(trifluoromethoxy)quinolin-2-yl)phenyl)-1H-pyrazole-5-carboxamide], 200 to 500 nM; to `Cc1c(-c2ncc3cc(C(F)(F)F)ccc3n2)ccc(NC(=O)c2ccnn2C)c1F` [Example 113, N-(2-fluoro-3-methyl-4-(6-(trifluoromethyl)quinazolin-2-yl)phenyl)-1-methyl-1H-pyrazole-5-carboxamide], 200 to 500 nM.
To `Cc1c(-c2ccc3cc(C(F)(F)F)ccc3n2)ccc(NC(=O)c2ccnn2C)c1F` [Example 005, N-(2-fluoro-3-methyl-4-(6-(trifluoromethyl)quinolin-2-yl)phenyl)-1-methyl-1H-pyrazole-5-carboxamide] belongs 1000 to 10000 nM; to `COc1cccc2ccc(-c3ccc(NC(=O)c4ccnn4C)c(C)c3)nc12` [Example 056, N-(4-(8-methoxyquinolin-2-yl)-2-methylphenyl)-1-methyl-1H-pyrazole-5-carboxamide], 500 to 1000 nM.
Compound `Cc1cc(-c2ncc3nc(C(F)(F)F)ccc3n2)ccc1NC(=O)c1ccnn1C` [Example 135, 1-methyl-N-(2-methyl-4-(6-(trifluoromethyl)pyrido[3,2-d]pyrimidin-2-yl)phenyl)-1H-pyrazole-5-carboxamide] gave a 50% inhibitory concentration (IC50) below 200 nM.
Compound `COc1cnccc1C(=O)N(C)c1ccc(-c2ncc3cc(C(F)(F)F)ccc3n2)cc1C` [Example 145, 3-Methoxy-N-methyl-N-(2-methyl-4-(6-(trifluoromethyl)quinazolin-2-yl)phenyl)isonicotinamide] had an IC50 below 200 nM.
In turn, `Cc1cc(-c2ncc3cc(C(F)(F)F)ccc3n2)ccc1N(C)C(=O)c1nn(C)cc1C` [Example 214, N,1,4-trimethyl-N-(2-methyl-4-(6-(trifluoromethyl)quinazolin-2-yl)phenyl)-1H-pyrazole-3-carboxamide] showed an IC50 of 200 to 500 nM.
To `Cc1cc(C(F)(F)F)nc2cnc(-c3ccc(N(C)C(=O)c4ccnn4C)c(F)c3)nc12` [Example 162, N-(2-fluoro-4-(8-methyl-6-(trifluoromethyl)pyrido[3,2-d]pyrimidin-2-yl)-phenyl)-N,1-dimethyl-1H-pyrazole-5-carboxamide] belongs below 200 nM; to `Cc1cc(-c2ncc3cc(F)cc(C)c3n2)ccc1NC(=O)c1ccnn1C` [Example 109, N-(4-(6-fluoro-8-methylquinazolin-2-yl)-2-methylphenyl)-1-methyl-1H-pyrazole-5-carboxamide], below 200 nM.
To `Cc1nc(NC(=O)c2ccnn2C)ccc1-c1ccc2cc(F)ccc2n1` [Example 044, N-(5-(6-fluoroquinolin-2-yl)-6-methylpyridin-2-yl)-1-methyl-1H-pyrazole-5-carboxamide] belongs 1000 to 10000 nM; to `Cc1cc(-c2ccc3cc(F)ccc3n2)ccc1NC(=O)c1cncnc1` [Example 030, N-(4-(6-fluoroquinolin-2-yl)-2-methylphenyl)pyrimidine-5-carboxamide], 1000 to 10000 nM.
To `CN(C(=O)c1ccnn1C)c1ccc(-c2ncc3cc(C(F)(F)F)ccc3n2)cc1` [Example 218, N,1-dimethyl-N-(4-(6-(trifluoromethyl)quinazolin-2-yl)phenyl)-1H-pyrazole-5-carboxamide] belongs below 200 nM; to `Cc1c(NC(=O)c2ccnn2C)ccc(-c2ncc3nc(C(F)(F)F)cc(C)c3n2)c1F` [Example 174, N-(3-fluoro-2-methyl-4-(8-methyl-6-(trifluoromethyl)pyrido[3,2-d]pyrimidin-2-yl)phenyl)-1-methyl-1H-pyrazole-5-carboxamide], below 200 nM.
Take `Cc1cc(-c2ccc3cc(F)ccc3n2)ccc1NC(=O)c1ccno1` [Example 037, N-(4-(6-fluoroquinolin-2-yl)-2-methylphenyl)isoxazole-5-carboxamide]: the IC50 was 500 to 1000 nM.
To `Cn1nccc1C(=O)Nc1ccc(-c2cnc3ccccc3n2)cc1` [Example 003, 1-methyl-N-(4-(quinoxalin-2-yl)phenyl)-1H-pyrazole-5-carboxamide] belongs 500 to 1000 nM; to `Cc1cc(-c2ccc3cc(F)cc(C(C)C)c3n2)ccc1NC(=O)c1ccnn1C` [Example 055, N-(4-(6-fluoro-8-isopropylquinolin-2-yl)-2-methylphenyl)-1-methyl-1H-pyrazole-5-carboxamide], 1000 to 10000 nM.
To `Cc1cc(-c2ccc3nc(C(F)(F)F)cc(C)c3n2)ccc1NC(=O)c1ccnn1C` [Example 105, 1-methyl-N-(2-methyl-4-(8-methyl-6-(trifluoromethyl)-1,5-naphthyridin-2-yl)phenyl)-1H-pyrazole-5-carboxamide] belongs below 200 nM; to `Cc1cc(-c2ccc3cc(C(F)(F)F)ccc3n2)cc(F)c1N(C)C(=O)c1ccnn1C` [Example 007, N-(2-fluoro-6-methyl-4-(6-(trifluoromethyl)quinolin-2-yl)phenyl)-N,1-dimethyl-1H-pyrazole-5-carboxamide], below 200 nM; to `Cc1cc(-c2ccc3cc(C(F)(F)F)ccc3n2)ccc1N(C)C(=O)c1ccnn1C` [Example 002, N,1-Dimethyl-N-(2-methyl-4-(6-(trifluoromethyl)quinolin-2-yl)phenyl)-1H-pyrazole-5-carboxamide], below 200 nM.
To `Cc1cc(-c2ncc3cc(C(F)(F)F)ccc3n2)ccc1NC(=O)c1ncccc1C` [Example 117, 3-methyl-N-(2-methyl-4-(6-(trifluoromethyl)quinazolin-2-yl)phenyl)picolinamide] belongs 500 to 1000 nM.
On to `Cc1cc(-c2ccc3cc(F)cc(C#N)c3n2)ccc1NC(=O)c1ccnn1C` [Example 054, N-(4-(8-cyano-6-fluoroquinolin-2-yl)-2-methylphenyl)-1-methyl-1H-pyrazole-5-carboxamide], for which the IC50 lay within 200 to 500 nM.
Compound `Cc1cc(-c2ncc3cc(C(F)(F)F)cc(C)c3n2)ccc1N(C)C(=O)c1ccnn1C` [Example 111, N,1-dimethyl-N-(2-methyl-4-(8-methyl-6-(trifluoromethyl)quinazolin-2-yl)phenyl)-1H-pyrazole-5-carboxamide] came in with an IC50 below 200 nM.
On to `Cc1cc(-c2ncc3cc(C(F)(F)F)cc(C)c3n2)ccc1NC(=O)c1ccnn1C` [Example 110, 1-methyl-N-(2-methyl-4-(8-methyl-6-(trifluoromethyl)quinazolin-2-yl)phenyl)-1H-pyrazole-5-carboxamide], for which the half-inhibitory concentration (IC50) is below 200 nM.
As to `Cc1cc(-c2ccc3cnccc3c2)ccc1NC(=O)c1ccnn1C` [Example 021, N-(4-(Isoquinolin-6-yl)-2-methylphenyl)-1-methyl-1H-pyrazole-5-carboxamide], the IC50 lay within 500 to 1000 nM.
To `Cc1cc(-c2ccc3cc(F)ccc3n2)ccc1NC(=O)C1CCOCC1` [Example 025, N-(4-(6-fluoroquinolin-2-yl)-2-methylphenyl)tetrahydro-2H-pyran-4-carboxamide] belongs 1000 to 10000 nM; to `Cc1cc(-c2ccc3cccc(F)c3n2)ccc1NC(=O)c1ccnn1C` [Example 018, N-(4-(8-fluoroquinolin-2-yl)-2-methylphenyl)-1-methyl-1H-pyrazole-5-carboxamide], below 200 nM.
